Starred links: 1 amine or outer side, 2 acyl side, 3 side chain; linkers in the order of their positions; H or OH if unused. Positions of bridges follow the written chain, without caps; N, C: chain ends. Non-standard residues stand in square brackets, D forms with d. Residues, ends and D or L forms follow the SMILES beside them. Groups on a side chain read outwards from the residue. *: point of attachment. εLys(α-Octadecanedioyl) = O=C(O)CCCCCCCCCCCCCCCCC(=O)N[C@@H](CCCCN*)C(=O)O; Decanoyl(10-(4-HOOC-PhO)) = O=C(O)c1ccc(OCCCCCCCCCC(=O)*)cc1; Trp(7-Me) = Cc1cccc2c(C[C@H](N)C(=O)O)c[nH]c12; C20 diacid = O=C(O)CCCCCCCCCCCCCCCCCCC(=O)*; C18 diacid = O=C(O)CCCCCCCCCCCCCCCCC(=O)*; C16 diacid = O=C(O)CCCCCCCCCCCCCCC(=O)*; γGlu = O=C(O)[C@H](CCC(=O)[*:2])N[*:1]; 2Nal = N[C@@H](Cc1ccc2ccccc2c1)C(=O)O; AEF = NCCOc1ccc(C[C@H](N)C(=O)O)cc1; 3Pal = N[C@@H](Cc1cccnc1)C(=O)O; NMeK = CN[C@@H](CCCCN)C(=O)O; Pen = CC(C)(S)[C@H](N)C(=O)O; Thp = NC1(C(=O)O)CCOCC1; AEEA = NCCOCCOCC(=O)O; Sar = CNCC(=O)O
Molecular target: T1, IL-23R (Homo sapiens, UniProt Q5VWK5)
T1 construct: HEK293 cells containing IL-23R, IL-12RP31 and a firefly luciferase reporter gene driven by a STAT-inducible promoter (Promega); host or cells: HEK293
T1 sequence (Q5VWK5 24-629): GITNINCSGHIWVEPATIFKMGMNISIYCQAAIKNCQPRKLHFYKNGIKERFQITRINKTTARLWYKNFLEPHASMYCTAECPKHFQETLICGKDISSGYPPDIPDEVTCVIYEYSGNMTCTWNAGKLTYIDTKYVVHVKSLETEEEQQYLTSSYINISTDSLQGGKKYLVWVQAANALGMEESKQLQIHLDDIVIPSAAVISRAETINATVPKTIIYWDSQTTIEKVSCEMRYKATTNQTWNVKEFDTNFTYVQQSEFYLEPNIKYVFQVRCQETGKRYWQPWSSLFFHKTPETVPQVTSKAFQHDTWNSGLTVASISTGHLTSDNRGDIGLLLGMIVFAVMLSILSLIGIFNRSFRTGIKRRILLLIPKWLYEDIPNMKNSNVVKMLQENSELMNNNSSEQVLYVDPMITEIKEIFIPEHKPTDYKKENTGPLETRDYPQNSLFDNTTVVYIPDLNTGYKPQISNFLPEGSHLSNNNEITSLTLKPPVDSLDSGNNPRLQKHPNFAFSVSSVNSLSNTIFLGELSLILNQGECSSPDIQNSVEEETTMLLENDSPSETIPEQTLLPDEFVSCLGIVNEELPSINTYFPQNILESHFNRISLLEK
Test: IL23R Reporter Assay
Format: cell-based
Text: IL-23 binding to IL-23 receptors results in the activation of the Signal Transducer and Activator of Transcription 3 (STAT3) by phosphorylation and downstream signaling events. Accordingly. the ability of the inhibitors described herein to block IL-23 action can be assessed by monitoring the status of STAT3 activation in response to IL-23. This may be accomplished in reporter cell assays or in intact cells such as peripheral blood mononuclear cells (PBMCs).
Compounds were serially diluted in 100% (v/v) DMSO) and plated using an Echo acoustic dispenser (Labcyte) into 1536-well non-treated black assay plates (Corning #9146). […] After 5 h at 37° C., 5% CO2, 95% relative humidity, cells were placed at 20° C. and treated with BioGlo reagent (Promega) according to the Manufacturer's instructions. Luminescence was measured on a Pherastar FSX (BMG LabTech).

Row | Structure (SMILES) | IC50 [nM]
1 | CC(=O)NCCCC[C@@H]1NC(=O)[C@H](Cc2c[nH]c3c(C)cccc23)NC(=O)[C@H]([C@@H](C)O)NC(=O)[C@H](CC(N)=O)NC(=O)[C@@H](NC(C)=O)C(C)(C)SSC(C)(C)[C@@H](C(=O)N[C@@H](Cc2ccc(OCCN)cc2)C(=O)N[C@@H](Cc2ccc3ccccc3c2)C(=O)NC2(C(=O)N[C@@H](CCCCNC(=O)COCCOCCNC(=O)CC[C@H](NC(=O)CCCCCCCCCCCCCCCCC(=O)O)C(=O)O)C(=O)N[C@@H](CC(N)=O)C(=O)N[C@@H](Cc3cccnc3)C(=O)N(C)CC(N)=O)CCOCC2)NC1=O [Example 35, MeCO-Pen*-N-T-7MeW-K(Ac)-Pen*-AEF-2Nal-THP-K(PEG2gEC18OH)-N-3Pya-Sar-CONH2] (Ac-[Pen]NT[Trp(7-Me)]K(Ac)[Pen][AEF][2Nal][Thp]K([AEEA-γGlu-C18 diacid])N[3Pal][Sar]-NH2; disulfide 1-6) | 0.19
2 | CC(=O)NCCCC[C@@H]1NC(=O)[C@H](Cc2c[nH]c3c(C)cccc23)NC(=O)[C@H]([C@@H](C)O)NC(=O)[C@H](CC(N)=O)NC(=O)[C@@H](NC(C)=O)C(C)(C)SSC(C)(C)[C@@H](C(=O)N[C@@H](Cc2ccc(OCCN)cc2)C(=O)N[C@@H](Cc2ccc3ccccc3c2)C(=O)NC2(C(=O)N[C@@H](CCCCNC(=O)COCCOCCNC(=O)COCCOCCNC(=O)CC[C@H](NC(=O)[C@H](CNC(=O)CCCCCCCCCOc3cccc(C(=O)O)c3)NC(=O)CCCCCCCCCOc3cccc(C(=O)O)c3)C(=O)O)C(=O)N[C@@H](CC(N)=O)C(=O)N[C@@H](Cc3cccnc3)C(=O)N(C)CC(N)=O)CCOCC2)NC1=O [Example 134, MeCO-Pen*-N-T-7MeW-K(Ac)-Pen*-AEF-2Nal-THP-K(PEG2PEG2gEDAP(mXOH)2)-N-3Pya-Sar-CONH2] | 0.037
3 | CC(=O)NCCCC[C@@H]1NC(=O)[C@H](Cc2c[nH]c3c(C)cccc23)NC(=O)[C@H]([C@@H](C)O)NC(=O)[C@H](CC(N)=O)NC(=O)[C@@H](NC(C)=O)C(C)(C)SSC(C)(C)[C@@H](C(=O)N[C@@H](Cc2ccc(OCCN)cc2)C(=O)N[C@@H](Cc2ccc3ccccc3c2)C(=O)NC2(C(=O)N[C@@H](CCCCNC(C)=O)C(=O)N[C@@H](CC(N)=O)C(=O)N[C@@H](Cc3cccnc3)C(=O)N(C)CC(=O)NCCOCCOCC(=O)NCCOCCOCC(=O)NCCCC[C@H](NC(=O)CCCCCCCCCCCCCCCCC(=O)O)C(=O)O)CCOCC2)NC1=O [Example 46, MeCO-Pen*-N-T-7MeW-K(Ac)-Pen*-AEF-2Nal-THP-K(Ac)-N-3Pya-Sar-PEG2PEG2eKC18OH-COOH] (Ac-[Pen]NT[Trp(7-Me)]K(Ac)[Pen][AEF][2Nal][Thp]K(Ac)N[3Pal][Sar][AEEA][AEEA]-{εLys(α-Octadecanedioyl)}; disulfide 1-6) | 0.26
4 | CC(=O)NCCCC[C@@H]1NC(=O)[C@H](Cc2c[nH]c3c(C)cccc23)NC(=O)[C@H]([C@@H](C)O)NC(=O)[C@H](CC(N)=O)NC(=O)[C@@H](NC(=O)[C@@H](CCCNC(=N)N)NC(C)=O)C(C)(C)SSC(C)(C)[C@@H](C(=O)N[C@@H](Cc2ccc(OCCN)cc2)C(=O)N[C@@H](Cc2ccc3ccccc3c2)C(=O)NC2(C(=O)N[C@@H](CCCCNC(C)=O)C(=O)N[C@@H](CC(N)=O)C(=O)N[C@@H](Cc3cccnc3)C(=O)N(C)[C@@H](CCCCNC(=O)COCCOCCNC(=O)COCCOCCNC(=O)CC[C@H](NC(=O)CCCCCCCCCCCCCCCCC(=O)O)C(=O)O)C(N)=O)CCOCC2)NC1=O [Example 54, MeCO-r-Pen*-N-T-7MeW-K(Ac)-Pen*-AEF-2Nal-THP-K(Ac)-N-3Pya-NMeK(PEG2PEG2gEC18OH)-CONH2] (Ac-[dR][Pen]NT[Trp(7-Me)]K(Ac)[Pen][AEF][2Nal][Thp]K(Ac)N[3Pal][NMeK]([AEEA-AEEA-γGlu-C18 diacid])-NH2; disulfide 2-7) | 0.13
5 | CC(=O)NCCCC[C@@H]1NC(=O)[C@H](Cc2c[nH]c3c(C)cccc23)NC(=O)[C@H]([C@@H](C)O)NC(=O)[C@H](CCCCNC(=O)COCCOCCNC(=O)COCCOCCNC(=O)[C@@H]2CCCN2C(=O)[C@@H]2CCCN2C(=O)[C@@H]2CCCN2C(=O)CC[C@H](NC(=O)CCCCCCCCCCCCCCCCC(=O)O)C(=O)O)NC(=O)[C@@H](NC(=O)[C@@H](CCCNC(=N)N)NC(C)=O)C(C)(C)SSC(C)(C)[C@@H](C(=O)N[C@@H](Cc2ccc(OCCN)cc2)C(=O)N[C@@H](Cc2ccc3ccccc3c2)C(=O)NC2(C(=O)N[C@@H](CCCCNC(C)=O)C(=O)N[C@@H](CC(N)=O)C(=O)N[C@@H](Cc3cccnc3)C(=O)N(C)CC(N)=O)CCOCC2)NC1=O [Example 99, MeCO-r-Pen*-K(PEG2PEG2PPPgEC18OH)-T-7MeW-K(Ac)-Pen*-AEF-2Nal-THP-K(Ac)-N-3Pya-Sar-CONH2] (Ac-[dR][Pen]K([AEEA-AEEA-Pro-Pro-Pro-γGlu-C18 diacid])T[Trp(7-Me)]K(Ac)[Pen][AEF][2Nal][Thp]K(Ac)N[3Pal][Sar]-NH2; disulfide 2-7) | 0.096
6 | CC(=O)NCCCC[C@@H]1NC(=O)[C@H](Cc2c[nH]c3c(C)cccc23)NC(=O)[C@H]([C@@H](C)O)NC(=O)[C@H](CC(N)=O)NC(=O)[C@@H](NC(C)=O)C(C)(C)SSC(C)(C)[C@@H](C(=O)N[C@@H](Cc2ccc(OCCN)cc2)C(=O)N[C@@H](Cc2ccc3ccccc3c2)C(=O)NC2(C(=O)N[C@@H](CCCCNC(=O)CC[C@H](NC(=O)CCCCCCCCCCCCCCCCCCC(=O)O)C(=O)O)C(=O)N[C@@H](CC(N)=O)C(=O)N[C@@H](Cc3cccnc3)C(=O)N(C)CC(N)=O)CCOCC2)NC1=O [Example 89, MeCO-Pen*-N-T-7MeW-K(Ac)-Pen*-AEF-2Nal-THP-K(gEC20OH)-N-3Pya-Sar-CONH2] (Ac-[Pen]NT[Trp(7-Me)]K(Ac)[Pen][AEF][2Nal][Thp]K([γGlu-C20 diacid])N[3Pal][Sar]-NH2; disulfide 1-6) | 0.34
7 | CC(=O)NCCCC[C@@H]1NC(=O)[C@H](Cc2c[nH]c3c(C)cccc23)NC(=O)[C@H]([C@@H](C)O)NC(=O)[C@H](CC(N)=O)NC(=O)[C@@H](NC(=O)[C@@H](CCCNC(=N)N)NC(C)=O)C(C)(C)SSC(C)(C)[C@@H](C(=O)N[C@@H](Cc2ccc(OCCN)cc2)C(=O)N[C@@H](Cc2ccc3ccccc3c2)C(=O)NC2(C(=O)N[C@@H](CCC(=O)O)C(=O)N[C@@H](CC(N)=O)C(=O)N[C@@H](Cc3cccnc3)C(=O)N(C)[C@@H](CCCCNC(=O)COCCOCCNC(=O)COCCOCCNC(=O)CC[C@H](NC(=O)CCCCCCCCCCCCCCC(=O)O)C(=O)O)C(N)=O)CCOCC2)NC1=O [Example 22, MeCO-r-Pen*-N-T-7MeW-K(Ac)-Pen*-AEF-2Nal-THP-E-N-3Pya-NMeK(PEG2PEG2gEC16OH)-CONH2] (Ac-[dR][Pen]NT[Trp(7-Me)]K(Ac)[Pen][AEF][2Nal][Thp]EN[3Pal][NMeK]([AEEA-AEEA-γGlu-C16 diacid])-NH2; disulfide 2-7) | 0.026
8 | CC(=O)NCCCC[C@@H]1NC(=O)[C@H](Cc2c[nH]c3c(C)cccc23)NC(=O)[C@H]([C@@H](C)O)NC(=O)[C@H](CC(N)=O)NC(=O)[C@@H](NC(C)=O)C(C)(C)SSC(C)(C)[C@@H](C(=O)N[C@@H](Cc2ccc(OCCN)cc2)C(=O)N[C@@H](Cc2ccc3ccccc3c2)C(=O)NC2(C(=O)N[C@@H](CCCCNC(=O)COCCOCCNC(=O)COCCOCCNC(=O)CC[C@H](NC(=O)CCCCCCCCCOc3ccc(C(=O)O)cc3)C(=O)O)C(=O)N[C@@H](CC(N)=O)C(=O)N[C@@H](Cc3cccnc3)C(=O)N(C)CC(N)=O)CCOCC2)NC1=O [Example 111, MeCO-Pen*-N-T-7MeW-K(Ac)-Pen*-AEF-2Nal-THP-K(PEG2PEG2gEpXOH)-N-3Pya-Sar-CONH2] (Ac-[Pen]NT[Trp(7-Me)]K(Ac)[Pen][AEF][2Nal][Thp]K([AEEA-AEEA-γGlu-Decanoyl(10-(4-HOOC-PhO))])N[3Pal][Sar]-NH2; disulfide 1-6) | 0.048
9 | CC(=O)NCCCC[C@@H]1NC(=O)[C@H](Cc2c[nH]c3c(C)cccc23)NC(=O)[C@H]([C@@H](C)O)NC(=O)[C@H](CC(N)=O)NC(=O)[C@@H](NC(=O)[C@@H](CCCNC(=N)N)NC(=O)COCCOCCNC(=O)COCCOCCNC(=O)CC[C@H](NC(=O)CCCCCCCCCCCCCCC(=O)O)C(=O)O)C(C)(C)SSC(C)(C)[C@@H](C(=O)N[C@@H](Cc2ccc(OCCN)cc2)C(=O)N[C@@H](Cc2ccc3ccccc3c2)C(=O)NC2(C(=O)N[C@@H](CCCCNC(=O)COCCOCCNC(=O)COCCOCCNC(=O)CC[C@H](NC(=O)CCCCCCCCCCCCCCC(=O)O)C(=O)O)C(=O)N[C@@H](CC(N)=O)C(=O)N[C@@H](Cc3cccnc3)C(=O)N(C)CC(N)=O)CCOCC2)NC1=O [Example 37, HOC16gEPEG2PEG2-r-Pen*-N-T-7MeW-K(Ac)-Pen*-AEF-2Nal-THP-K(PEG2PEG2gEC16OH)-N-3Pya-Sar-CONH2] ({C16 diacid-γGlu-AEEA-AEEA}-[dR][Pen]NT[Trp(7-Me)]K(Ac)[Pen][AEF][2Nal][Thp]K([AEEA-AEEA-γGlu-C16 diacid])N[3Pal][Sar]-NH2; disulfide 2-7) | 0.19

Reference: patent publication US12478617B2, “Lipidated peptide inhibitors of interleukin-23 receptor” (JANSSEN BIOTECH, INC., priority 2021, dated 2025)
